{
  "source": "patent US20020114868A1",
  "about": "“Highly soluble and stable nutritional compositions containing calcium and magnesium” (priority 1999, published 2002)",
  "conditions": "3.4 g calcium equivalent in 8 ounces deionized water at 68° F",
  "note": "Like-named read-outs stand apart in the source and are kept apart here. Marks after values point to notes of the source that are not given here.",
  "data": [
    {"smiles": "CC(O)C(=O)[O-].O=C([O-])[C@H](O)[C@@H](O)[C@H](O)[C@H](O)CO.[Ca+2]", "note": "[Gluconal ®, Calcium Gluconate Lactate]", "values": [
      {"measurement": "Dissolution Rates as % of Maximum Solubility", "setting": "elapsed time 00:00.0 mm:ss.s", "value": 0, "unit": "%"},
      {"measurement": "Dissolution Rates as % of Maximum Solubility", "setting": "elapsed time 00:05.4 mm:ss.s", "value": 10, "unit": "%"},
      {"measurement": "Dissolution Rates as % of Maximum Solubility", "setting": "elapsed time 00:10.7 mm:ss.s", "value": 20, "unit": "%"},
      {"measurement": "Dissolution Rates as % of Maximum Solubility", "setting": "elapsed time 00:16.1 mm:ss.s", "value": 30, "unit": "%"},
      {"measurement": "Dissolution Rates as % of Maximum Solubility", "setting": "elapsed time 00:21.5 mm:ss.s", "value": 50, "unit": "%"},
      {"measurement": "Dissolution Rates as % of Maximum Solubility", "setting": "elapsed time 00:26.9 mm:ss.s", "value": 55, "unit": "%"},
      {"measurement": "Dissolution Rates as % of Maximum Solubility", "setting": "elapsed time 00:32.2 mm:ss.s", "value": 45, "unit": "%"},
      {"measurement": "Dissolution Rates as % of Maximum Solubility", "setting": "elapsed time 00:37.6 mm:ss.s", "value": 58, "unit": "%"},
      {"measurement": "Dissolution Rates as % of Maximum Solubility", "setting": "elapsed time 00:43.0 mm:ss.s", "value": 63, "unit": "%"},
      {"measurement": "Dissolution Rates as % of Maximum Solubility", "setting": "elapsed time 00:48.4 mm:ss.s", "value": 66, "unit": "%"},
      {"measurement": "Dissolution Rates as % of Maximum Solubility", "setting": "elapsed time 00:53.7 mm:ss.s", "value": 71, "unit": "%"},
      {"measurement": "Dissolution Rates as % of Maximum Solubility", "setting": "elapsed time 00:59.1 mm:ss.s", "value": 71, "unit": "%"},
      {"measurement": "Dissolution Rates as % of Maximum Solubility", "setting": "elapsed time 01:04.5 mm:ss.s", "value": 77, "unit": "%"},
      {"measurement": "Dissolution Rates as % of Maximum Solubility", "setting": "elapsed time 01:09.9 mm:ss.s", "value": 77, "unit": "%"},
      {"measurement": "Dissolution Rates as % of Maximum Solubility", "setting": "elapsed time 01:15.3 mm:ss.s", "value": 80, "unit": "%"},
      {"measurement": "Dissolution Rates as % of Maximum Solubility", "setting": "elapsed time 01:20.6 mm:ss.s", "value": 83, "unit": "%"},
      {"measurement": "Dissolution Rates as % of Maximum Solubility", "setting": "elapsed time 01:36.7 mm:ss.s", "value": 85, "unit": "%"},
      {"measurement": "Dissolution Rates as % of Maximum Solubility", "setting": "elapsed time 01:47.5 mm:ss.s", "value": 85, "unit": "%"},
      {"measurement": "Dissolution Rates as % of Maximum Solubility", "setting": "elapsed time 01:58.2 mm:ss.s", "value": 86, "unit": "%"},
      {"measurement": "Dissolution Rates as % of Maximum Solubility", "setting": "elapsed time 02:09.0 mm:ss.s", "value": 88, "unit": "%"},
      {"measurement": "Dissolution Rates as % of Maximum Solubility", "setting": "elapsed time 03:00.0 mm:ss.s", "value": 98, "unit": "%"},
      {"measurement": "Dissolution Rates as % of Maximum Solubility", "setting": "elapsed time 03:30.5 mm:ss.s", "value": 94, "unit": "%"},
      {"measurement": "Dissolution Rates as % of Maximum Solubility", "setting": "elapsed time 04:00.0 mm:ss.s", "value": 99, "unit": "%"},
      {"measurement": "Dissolution Rates as % of Maximum Solubility", "setting": "elapsed time 05:00.0 mm:ss.s", "value": 99, "unit": "%"},
      {"measurement": "Dissolution Rates as % of Maximum Solubility", "setting": "elapsed time 06:00.0 mm:ss.s", "value": 99, "unit": "%"},
      {"measurement": "Dissolution Rates as % of Maximum Solubility", "setting": "elapsed time 07:00.0 mm:ss.s", "value": 99, "unit": "%***"},
      {"measurement": "Dissolution Rates as % of Maximum Solubility", "setting": "elapsed time 101:26.0 mm:ss.s", "value": 86, "unit": "%"}
    ]}
  ]
}
